In PubChem BioAssay (NCI):
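A five-concentration, 48-hour dose response in 96-well plates underlies each endpoint, interpolated linearly between surrounding concentrations. Here, GI50 denotes the concentration required for 50% inhibition of growth. Definition used: TGI = concentration required for complete inhibition of growth.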

How the values were obtained:
Assay in all cases: NCI anticancer screen, dose series, 48 h
[1] = system: T-47D breast
[2] = system: 786-0 renal
[3] = system: UACC-257 melanoma
[4] = system: M14 melanoma
[5] = system: NCI-H226 lung
[6] = system: SNB-75 CNS
[7] = system: SW-620 colon
[8] = system: SF-268 CNS
[9] = system: UO-31 renal
[10] = system: NCI-H460 lung
[11] = system: COLO 205 colon
[12] = system: NCI-H23 lung
[13] = system: HOP-62 NSCLC
[14] = system: RXF 393 renal
[15] = system: OVCAR-3 ovarian
[16] = system: TK-10 renal
[17] = system: CCRF-CEM leukemia
[18] = system: KM12 colon
[19] = system: SK-OV-3 ovarian
[20] = system: RPMI-8226 leukemia
[21] = system: BT-549 breast
[22] = system: SK-MEL-28 melanoma
[23] = system: OVCAR-4 ovarian
[24] = system: PC-3 prostate
[25] = system: HS 578T breast
[26] = system: UACC-62 melanoma
[27] = system: SK-MEL-2 melanoma
[28] = system: MDA-MB-435
[29] = system: MOLT-4 leukemia
[30] = system: SK-MEL-5 melanoma
[31] = system: EKVX NSCLC
[32] = system: K-562 leukemia
[33] = system: ACHN renal
[34] = system: HOP-92 NSCLC
[35] = system: SF-295 CNS
[36] = system: CAKI-1 renal
[37] = system: SN12C renal
[38] = system: LOX IMVI melanoma
[39] = system: HCC-2998 colon
[40] = system: SNB-19 CNS
[41] = system: HT29 colon
[42] = system: HL-60(TB) leukemia
[43] = system: IGROV1 ovarian
[44] = system: SR leukemia
[45] = system: SF-539 CNS
[46] = system: A549 NSCLC
[47] = system: DU-145 prostate
[48] = system: MALME-3M melanoma
[49] = system: OVCAR-8 ovarian
[50] = system: HCT-15 colon
[51] = system: MDA-MB-231 breast
[52] = system: A498 renal
[53] = system: OVCAR-5 ovarian
[54] = system: MDA-MB-468 breast
[55] = system: NCI-H522 lung
[56] = system: U251 CNS
[57] = system: MCF7 breast
[58] = system: HCT-116 colon

N#Cc1c(-c2ccc(Br)cc2)nc2n[nH]c(-c3ccc(Br)cc3)c2c1-c1ccc(C(F)(F)F)cc1
GI50 [1]: 3.39 µM | TGI [1]: 93.9 µM | GI50 [2]: 7.85 µM | TGI [2]: 28.1 µM | GI50 [3]: 13.3 µM | TGI [3]: 62.6 µM | GI50 [4]: 5.24 µM | TGI [4]: 23.7 µM | GI50 [5]: 3.07 µM | TGI [5]: 18 µM | GI50 [6]: 12.6 µM | TGI [6]: 43.9 µM | GI50 [7]: 4.39 µM | TGI [7]: > 100 µM | GI50 [8]: 7.91 µM | TGI [8]: > 100 µM | GI50 [9]: 2.07 µM | TGI [9]: 14.9 µM | GI50 [10]: 3.62 µM | TGI [10]: 19.4 µM | GI50 [11]: 3.88 µM | TGI [11]: 15.9 µM | GI50 [12]: 4.31 µM | TGI [12]: > 100 µM | GI50 [13]: 14.1 µM | TGI [13]: 44.7 µM | GI50 [14]: 6.93 µM | TGI [14]: 28.4 µM | GI50 [15]: 5.32 µM | TGI [15]: 34.3 µM | GI50 [16]: 19.7 µM | TGI [16]: 58.3 µM | GI50 [17]: 3.05 µM | TGI [17]: 13 µM | GI50 [18]: 4.4 µM | TGI [18]: 26.8 µM | GI50 [19]: 14.2 µM | TGI [19]: 69.1 µM | GI50 [20]: 2.35 µM | TGI [20]: 10.4 µM | GI50 [21]: 2.56 µM | TGI [21]: 8.18 µM | GI50 [22]: 6.79 µM | TGI [22]: 26.3 µM | GI50 [23]: 4.02 µM | TGI [23]: 25.6 µM | GI50 [24]: 1.95 µM | TGI [24]: 12.4 µM | GI50 [25]: 10.2 µM | TGI [25]: 49.1 µM | GI50 [26]: 2.61 µM | TGI [26]: 13.3 µM | GI50 [27]: 10.1 µM | TGI [27]: 23.6 µM | GI50 [28]: 4.03 µM | TGI [28]: 21.4 µM | GI50 [29]: 1.89 µM | TGI [29]: 6.02 µM | GI50 [30]: 3.29 µM | TGI [30]: 10.8 µM | GI50 [31]: 3.05 µM | TGI [31]: 27.3 µM | GI50 [32]: 2.61 µM | TGI [32]: 10.3 µM | GI50 [33]: 3.26 µM | TGI [33]: 14.3 µM | GI50 [34]: 1.65 µM | TGI [34]: 4.73 µM | GI50 [35]: 2.61 µM | TGI [35]: 10.1 µM | GI50 [36]: 4.01 µM | TGI [36]: 24.2 µM | GI50 [37]: 3.3 µM | TGI [37]: 15.8 µM | GI50 [38]: 3.45 µM | TGI [38]: > 100 µM | GI50 [39]: 5.27 µM | TGI [39]: 27.1 µM | GI50 [40]: 4.53 µM | TGI [40]: 33.3 µM | GI50 [41]: 3.84 µM | TGI [41]: 35.7 µM | GI50 [42]: 2.03 µM | TGI [42]: 6.13 µM | GI50 [43]: 2.71 µM | TGI [43]: 15.4 µM | GI50 [44]: 2.5 µM | TGI [44]: 7.71 µM | GI50 [45]: 5.35 µM | TGI [45]: 22.2 µM | GI50 [46]: 4.62 µM | TGI [46]: > 100 µM | GI50 [47]: 5.45 µM | TGI [47]: > 100 µM | GI50 [48]: 2.34 µM | TGI [48]: 6.47 µM | GI50 [49]: 12.5 µM | TGI [49]: > 100 µM | GI50 [50]: 3.29 µM | TGI [50]: 19.1 µM | GI50 [51]: 5.37 µM | TGI [51]: 19.3 µM | GI50 [52]: 15.1 µM | TGI [52]: 45.2 µM | GI50 [53]: 7.58 µM | TGI [53]: 26.9 µM | GI50 [54]: 3.44 µM | TGI [54]: 15.5 µM | GI50 [55]: 3.78 µM | TGI [55]: 36.9 µM | GI50 [56]: 6.23 µM | TGI [56]: 62.4 µM | GI50 [57]: 3.13 µM | TGI [57]: 24 µM | GI50 [58]: 3.42 µM | TGI [58]: 73.2 µM
